Test results published in patent publication US7553868B2, “Thiophene carboxamides as inhibitors of the enzyme IKK-2” (AstraZeneca AB, priority 2003, dated 2009).

Key:
[1] = biological target: T1, IKK-2 (Homo sapiens, UniProt O14920); test: IKK-2 filter kinase assay; format: biochemical; conditions: 1 μM ATP, 1-53 GST-IκB substrate, read-out: Inhibition of IKK-2
T1 sequence (O14920 1-756): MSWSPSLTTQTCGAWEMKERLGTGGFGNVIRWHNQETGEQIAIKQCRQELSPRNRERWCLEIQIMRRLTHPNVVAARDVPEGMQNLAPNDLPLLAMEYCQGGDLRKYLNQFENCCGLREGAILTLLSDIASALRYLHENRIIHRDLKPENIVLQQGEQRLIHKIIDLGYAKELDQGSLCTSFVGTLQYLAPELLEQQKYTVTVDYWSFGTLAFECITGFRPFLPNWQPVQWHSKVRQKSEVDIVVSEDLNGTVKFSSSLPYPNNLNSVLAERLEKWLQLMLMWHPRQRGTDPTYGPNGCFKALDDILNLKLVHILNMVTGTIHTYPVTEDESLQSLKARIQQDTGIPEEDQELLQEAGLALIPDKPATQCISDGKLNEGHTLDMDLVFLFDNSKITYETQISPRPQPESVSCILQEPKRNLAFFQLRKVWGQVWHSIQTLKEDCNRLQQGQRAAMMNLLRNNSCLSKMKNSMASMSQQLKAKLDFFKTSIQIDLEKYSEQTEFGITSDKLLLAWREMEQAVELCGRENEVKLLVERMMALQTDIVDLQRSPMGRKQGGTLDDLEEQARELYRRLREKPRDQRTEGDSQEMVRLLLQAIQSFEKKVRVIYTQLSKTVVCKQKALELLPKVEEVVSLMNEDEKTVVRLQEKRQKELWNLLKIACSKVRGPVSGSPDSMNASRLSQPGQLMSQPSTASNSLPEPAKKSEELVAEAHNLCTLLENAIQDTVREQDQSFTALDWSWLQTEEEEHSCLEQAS
Method: IKK-2 Filter Kinase Assay
The test compounds were dissolved to 10 mM in dimethylsulphoxide (DMSO). The compounds were then diluted 1 in 40 in kinase buffer (50 mM Tris, pH 7.4 containing 0.1 mM EGTA, 0.1 mM sodium orthovanadate and 0.1% β-mercaptoethanol). 1 in 3 serial dilutions were made from this solution with 2.5% DMSO in kinase buffer. 20 μl of compound dilution was added to wells of a 96 well plate in duplicate. 20 μl 2.5% DMSO in kinase buffer instead of compound was added to control wells (0% inhibition). […] 10 μl of a mixture of magnesium acetate, unlabelled ATP, and ^33P-labelled ATP was added to each well made such that the final concentration was 10 mM magnesium acetate, 1 μM ATP and 0.1 μCi ^33P ATP. […] The final reaction volume was 50 μl.
The kinase reactions were incubated at 21° C. for 80 minutes and the reaction stopped by precipitating the protein by the addition of an equal volume (50 μl) of 20% trichloroacetic acid (TCA). The precipitate was allowed to form for 10 minutes and then filtered onto a GF/C unifilter 96 well plate. Each filter was washed twice with approximately 1 ml 2% TCA. The filter plate was dried at 30-40° C. for 60 minutes, 20 μl scintillant was added to each well and the plate sealed and radioactivity counted on a Packard Topcount microplate scintillation counter.

[2] = Compound permeability and efflux potential using Caco-2 cell monolayers; format: in vitro ADME, human; parameters: Caco-2 Assay Papp: unit not given here; conditions: human, Caco-2; 10 μM compound, pH 7.4, 120 min at 37° C.; efflux ratio; read-out: Caco-2 Assay Papp (B-A)/Papp(A-B) Ratio
Text: (§1) Assessment of Compound Permeability and Efflux Potential using CACO-2 Cell Monolayers.
(§2) Caco-2 cells are a cell line derived from human colon cancer cells. The Caco-2 cells retain many of the properties of the human gut, including tight junctions and transporter proteins (e.g. pgp transporter), and are used primarily to assess the potential of compounds to be absorbed after oral administration. In this assay protocol, transports in the apical to basolateral direction (A-B direction) as well as in the opposite direction (B-A direction) are determined to assess both permeability and efflux potentials of the test compounds.
(§3) Cells are seeded at a density of 100,000 cells/well onto 1 μm filters within each well of 24-well plates (Beckton-Dickinson, UK) and grown until an intact monolayer of the cells is formed across each well (14 days).
(§4) When ready for use the intactness of the monolayers is assessed using measurement of the Trans-Epithelial Resistance (TEER) within each well. If TEERs are acceptable, each test compound is added to pH 7.4 buffer to a concentration of 10 μM in either the upper (Apical; A) or lower (Basolateral; B) chambers of the individual wells of the 24-well plates in duplicate, resulting in replicate measurements of the permeability of each compound through the monolayers in both the A-B and B-A directions. Four reference compounds are incubated alongside test compounds for quality control purposes (low, medium and high permeability plus one known efflux substrate).
(§5) After mixing, an aliquot of the donor chamber is taken immediately for analysis (TO). The plates are then incubated for 120 min at 37° C., after which a further aliquot is taken from the donor chamber (used to assess recovery over the duration of the experiment), while a similar aliquot is taken from the recipient chamber at this time (T120 sample).
(§6) All sample manipulations are undertaken on a Tecan Genesis RS200 robot.
(§7) All samples are analysed using LC-electrospray MS (both + and − mode), and peak areas used to quantify each test agent.
(§8) From the data obtained the rate of transfer (Papp) of each compound across the monolayer is calculated in either the A-B or B-A directions. From the Papp(A-B) data, the potential human absorption is categorised as LOW (Papp<=[…].cm^2.sec^−1), PARTIAL (Papp>0.5<=2.9×10^6 cm^2.sec^−1) or HIGH (Papp>2.9×10^6.cm^2.sec^−1), while from the Papp(B-A)/Papp(A-B) ratio, the potential for efflux of the test compound is assessed, where a ratio≧5 is categorised as HIGH, and <5 is categorised as LOW.

[3] = test system: Caco-2 cell monolayers; test: as above; format: in vitro ADME, human; parameters: Caco-2 Assay Papp: unit not given here; conditions: 10 μM compound, pH 7.4, 120 min at 37° C.; Papp(A-B) used for absorption category
Text: as §1, §2, §3, §4, §5, §6, §7, §8

Row | Compound | IC50 [1] [nM] | efflux ratio at 120 min, 10 μM [2] | Caco-2 Assay Papp [3]
1 | CN1CCC(Oc2ccccc2-c2cc(C(N)=O)c(NC(N)=O)s2)C1 (stereo not drawn) [2-[(Aminocarbonyl)amino]-5-(2-[{1-methylpyrrolidin-3-yl}oxy]phenyl)-3-thiophenecarboxamide, reference compound] | 10 | 8.14 | 2.19
2 | COCCN1CCC(Oc2ccccc2-c2cc(C(N)=O)c(NC(N)=O)s2)C1 (stereo not drawn) [2-[(Aminocarbonyl)amino]-5-(2-{[1-(2-methoxyethyl)-pyrrolidin-3-yl]oxy}phenyl)-3-thiophenecarboxamide, reference compound] | 30 | 5.88 | 1.86
3 | NC(=O)Nc1sc(-c2ccccc2OCCN2Cc3ccccc3C2)cc1C(N)=O [Example 5, 2-[(Aminocarbonyl)amino]-5-[2-{2-(1,3-dihydro-2H-isoindol-2-yl)ethoxy}phenyl]thiophene-3-carboxamide] | 150 | 0.66 | 14.3
4 | NC(=O)Nc1sc(-c2ccccc2OC2CCN(Cc3ccccc3)C2)cc1C(N)=O (stereo not drawn) [Example 7, 2-[(Aminocarbonyl)amino]-5-[2-{[1-benzylpyrrolidin-3-yl]oxy}phenyl]thiophene-3-carboxamide] | 40 | 1.07 | 15.7
5 | NC(=O)Nc1cc(-c2ccccc2OCCN2Cc3ccccc3C2)sc1C(N)=O [Example 13, 3-[(Aminocarbonyl)amino]-5-[2-{2-(1,3-dihydro-2H-isoindol-2-yl)ethoxy}phenyl]thiophene-2-carboxamide] | 1430 | 1.26 | 23.6
